This assay is described as follows: Enzyme-Linked Immunosorbent Assay: EZH2 wild type: Experimental method: avdin of a final concentration of 100 nM was used to coat 96-well plate at 10 μL/well, placed in a wet box and shaken overnight, and then 100 μL 3% BSA per well was added and blocked for 1 h at room temperature. PRC2 complex (EZH2/EED/SUZ12/RbAp48/AEBP2), H3 (21-44) me0 substrate, methyl donor SAM and compound were added into each well of the blocked 96-well plate. The total reaction system was 100 μL, placed in a wet box and allowed to react for 1 h on shaker at room temperature. The plate was washed with TBS-T [20 mM Tris-HCl (pH 7.2-7.4, room temperature), 150 mM NaCl, 0.1% (v/v) Tween-20] for 3 times, blocked with 3% BSA for 10 min, and anti-H3K27me3 antibody was added and incubated for 1 h in a wet box on shaker at room temperature. The plate was washed again with TBS-T for 3 times, and blocked with 3% BSA per well for 10 min. Horseradish peroxidase-labeled secondary antibody was added and reacted in a wet box at room temperature for 1 h, and finally, washed with TBS-T for 3 times. 2 mg/ml OPD color developing solution (1004/well) was added for coloring, and the reaction was stopped with 2M H2SO4 (50 μL/well). The plate was read by a plate reader at 490 nm and IC50 of the compound was calculated using SoftMax Pro 5.4.1 software.

As to `Cc1cc(C)c(CNC(=O)c2cc3cccn3c(C(C)OCc3ccnn3C)c2C)c(=O)[nH]1` (stereo unspecified), the IC50 was less than 100 nM.

As usually defined, the IC50 is the concentration at which inhibition is half-maximal.

These data come from ChEMBL document CHEMBL5728379, “Pyrido five-element aromatic ring compound, preparation method therefor and use thereof” (2021).
